According to patent US20260184675A1, “CHIRAL ISOMERIC SULFITE COMPOUND AND APPLICATION THEREOF” (Chengdu Hanova BioSciences Co., Ltd, priority 2024, published 2026):

Key:
[1] = test system: eggs of Thrips; assay: Effect on hatching of eggs of Thrips, leaf disc method; type: in vivo; conditions: 100 ppm; for Hatching rate (%): 5 days after insecticide delivery
Protocol: (§1) • (1) Preparation of leaf discs containing eggs: 20 female adult mites of Tetranychus cinnabarinus were transferred onto leaf discs of Vicia faba with a diameter of 2.0 cm (with wetted filter paper at the bottom), then covered it with a lidded culture dish and cultivated under moisturizing conditions, the adult mites were removed within 36 hours and microscopic examination and counting were performed on leaf discs containing eggs. • (2) Investigation of egg population base: Before pesticide soaking, a microscopic examination was conducted on the egg basic number of each leaf disc, with 2 replicates set for each treatment. • (3) Pesticide soaking treatment: The leaf butterflies loaded with mite eggs were soaked in clear water and sulfite compounds for 10 seconds, respectively, then taken out and cultivated under moisturizing conditions. Each treatment should be repeated for no less than 3 times. • (4) Cultivation and observation: The […] were cultivated under normal conditions. Five days after insecticide delivery, the hatching status of mite eggs was investigated. • Note: The temperature and humidity conditions of the constant temperature and humidity incubator after the treatment should be controlled so as to avoid excessive temperature differences, which may cause generation and dripping of condensate water in the culture dish, resulting in abnormal death of eggs due to soaking in water; it is also necessary to ensure sufficient strong ambient light, without directing irradiating the leaves. • (5) Survey of Results: The experimental materials of each treatment group were regularly hydrated and moisturized, and the hatching of eggs was observed. On the 7th day after insecticide delivery, the number of hatched eggs for each treatment was recorded, and the survey of results was recorded in the original notebook. According to the experimental requirements and characteristics of agents, the survey time can be shortened or extended.
(§2) • 1) Surveying and recording the number of hatched eggs for each treatment. • 2) Photographing and recording whether there was any pesticide damage to the leaf discs of Vicia faba. • 3) Recording the developmental status of experimental mite eggs, behavior status of nymph mites, including abnormal phenomena such as delayed or stopped development of mite eggs, difficulty in breaking hull for nymph mites, or painful struggles after hatching, etc. • (6) Calculation method: Based on the survey data, the prevention and control effect of each treatment was calculated according to the following formula, and the calculation results were kept to two decimal places.
(§3) This test adopted the method in Test Example 1 of technical section, mainly used leaf disc method to explore the inhibitory effect on hatching of eggs of Thrips by 1-(S,S), 1-(S,R), 1-(R,R), 1-(R,S), 1′-(S,S), 1′-(S,R), 1′-(R,R), 1′-(R,S), compound 1, compound 1′, S-10, R-10, S-10′, R-10′, compound 10, compound 10′, compound 19-(S,S), 19-(S,R), 19-(R,R), 19-(R,S), 19′-(S,S), 19′-(S,R), 19′-(R,R), 19′-(R,S), compound 19, and compound 19′. The concentration of all compounds was 100 ppm.

[2] = test system: eggs of Aleyrodidae; assay: Effect on hatching of eggs of Aleyrodidae, leaf disc method; type: in vivo; conditions: 10 ppm; for Hatching rate (%), Replicate 1 / Hatching rate (%), Replicate 2 / Hatching rate (%), Replicate 3 / Number of hatched larvae 5 days after insecticide delivery, Replicate 1 / Number of hatched larvae 5 days after insecticide delivery, Replicate 2 / Number of hatched larvae 5 days after insecticide delivery, Replicate 3: Aleyrodidae eggs; for Hatching rate (%), Replicate 1 / Hatching rate (%), Replicate 2 / Hatching rate (%), Replicate 3: 5 days after delivery; for Number of hatched larvae 5 days after insecticide delivery, Replicate 1 / Number of hatched larvae 5 days after insecticide delivery, Replicate 2 / Number of hatched larvae 5 days after insecticide delivery, Replicate 3: leaf disc
Protocol: as §1, §2
as §3, with “Aleyrodidae” for “Thrips”, “by compounds” for “by”, “10” for “100”

[3] = test system: eggs of Spodoptera litura; assay: Effect on hatching of eggs of Spodoptera litura, egg piece soaking; type: in vivo; conditions: 500 ppm; for Hatching rate (%), Replicate 1 / Hatching rate (%), Replicate 2 / Hatching rate (%), Replicate 3 / Number of unhatched larvae 4 days after insecticide delivery, Replicate 1 / Number of unhatched larvae 4 days after insecticide delivery, Replicate 2 / Number of unhatched larvae 4 days after insecticide delivery, Replicate 3: Spodoptera litura eggs; for Hatching rate (%), Replicate 1 / Hatching rate (%), Replicate 2 / Hatching rate (%), Replicate 3: 4 days after delivery; for Number of unhatched larvae 4 days after insecticide delivery, Replicate 1 / Number of unhatched larvae 4 days after insecticide delivery, Replicate 2 / Number of unhatched larvae 4 days after insecticide delivery, Replicate 3: soaked 10 minutes
Protocol: • (1) Preparation of paper containing eggs: the egg mass was cut into small pieces, each containing about 60 eggs, soaked in a preformulated test agent for 10 minutes together with paper for egg raising (concentration of each compound of 500 ppm). After taken out, absorbent paper was used to absorb the excess solution adhered to the paper for egg raising and egg pieces. (2) Cultivation: Each egg piece was separately placed in a glass test tube (5.0 cm in height, 2.5 cm in diameter, the same below), which was sealed with plastic paper punctured with fine holes using insect needles and cultivated in an artificial climate chamber at a temperature of (24±1° C.), a relative humidity of (80±10) %, and a photoperiod of L:D=12:12. When the eggs developed until they were about to hatch, castor leaves with a diameter of about 3 cm were added for feeding the hatching larvae; • (3) Observation: the number of hatched and unhatched eggs per egg piece was checked and recorded, and the hatching rate of eggs was calculated according to the formula. Each treatment was repeated for 3 times. • (4) Survey of results: The experimental materials of each treatment group were regularly hydrated and moisturized, and the hatching of eggs was observed. On the 4th day after insecticide delivery, the number of hatched eggs for each treatment was recorded, and the survey of results was recorded in the original notebook. According to the experimental requirements and characteristics of agents, the survey time can be shortened or extended. • 1) Surveying and recording the number of hatched eggs for each treatment. • 2) Recording the developmental status of experimental eggs of Spodoptera litura, behavior status of nymphs, including abnormal phenomena such as delayed or stopped development of eggs of Spodoptera litura, etc. • (5) Calculation method: Based on the survey data, the prevention and control effect of each treatment was calculated according to the following formula, and the calculation results were kept to two decimal places. [formula] [formula]

[4] = test system: eggs of Harmonia axyridis; assay: Effect on hatching of eggs of Harmonia axyridis, egg card immersion; type: in vivo; conditions: 100 ppm; for Number of hatched larvae 4 days after insecticide delivery, Replicate 1 / Number of hatched larvae 4 days after insecticide delivery, Replicate 2 / Number of hatched larvae 4 days after insecticide delivery, Replicate 3: Harmonia axyridis egg cards, immersed 30 seconds; for Hatching rate (%), Replicate 1 / Hatching rate (%), Replicate 2 / Hatching rate (%), Replicate 3: Harmonia axyridis eggs, 4 days after delivery
Source text: The eggs of Harmonia axyridis cards (with approximately 20 eggs per card) were purchased from Henan Jiyuan Baiyun Industry Co., Ltd. in Henan Province. The number of eggs on the egg cards was counted as the basic number before insecticide delivery, and 5 cards were used as one treatment, with 3 replicates per treatment. After immersing the egg cards in a 100 ppm insecticide solution for 30 seconds, they were taken out and air dried, then cultivated under moisturizing conditions, and the […] were cultivated at 27° C. 4 days after insecticide delivery, the hatching status of eggs of Harmonia axyridis was investigated, and the prevention and control effect was calculated according to the following formula. [formula] [formula]

[5] = test system: Magnaporthe grisea; type: cell-based; conditions: 100 ppm; for Average antifungal rate (%) / Antifungal rate of Magnaporthe grisea (%), Replicate 1 / Antifungal rate of Magnaporthe grisea (%), Replicate 2 / Antifungal rate of Magnaporthe grisea (%), Replicate 3: 96-well plate; for Average antifungal rate (%): average of 3 replicates
[6] = Replicate 1, listed as 1′-(R, R)
[7] = Replicate 2, listed as 1′-(R, R)
[8] = Replicate 3, listed as 1′-(R, R)
[9] = Replicate 1, listed as 1′-(R, S)
[10] = Replicate 2, listed as 1′-(R, S)
[11] = Replicate 3, listed as 1′-(R, S)

## CC(COc1ccc(Cl)cc1Cl)OS(=O)OCCF [1′-(R,R)]
[1]; [6]
  Hatching rate (%): 12.68%
  Number of hatched larvae 5 days after insecticide delivery: 18
[1]; [7]
  Hatching rate (%): 12.79%
  Number of hatched larvae 5 days after insecticide delivery: 11
[1]; [8]
  Hatching rate (%): 14.29%
  Number of hatched larvae 5 days after insecticide delivery: 15
[2]; listed as 1′-(R, R)
  Hatching rate (%), Replicate 1: 13.95%
  Hatching rate (%), Replicate 2: 15.38%
  Hatching rate (%), Replicate 3: 13.21%
  Number of hatched larvae 5 days after insecticide delivery, Replicate 1: 18
  Number of hatched larvae 5 days after insecticide delivery, Replicate 2: 14
  Number of hatched larvae 5 days after insecticide delivery, Replicate 3: 14
[3]; listed as 1′-(R, R)
  Hatching rate (%), Replicate 1: 61.82%
  Hatching rate (%), Replicate 2: 64.29%
  Hatching rate (%), Replicate 3: 62.71%
  Number of unhatched larvae 4 days after insecticide delivery, Replicate 1: 21
  Number of unhatched larvae 4 days after insecticide delivery, Replicate 2: 20
  Number of unhatched larvae 4 days after insecticide delivery, Replicate 3: 22
[4]; listed as 1′-(R, R)
  Number of hatched larvae 4 days after insecticide delivery, Replicate 1: 15
  Number of hatched larvae 4 days after insecticide delivery, Replicate 2: 16
  Number of hatched larvae 4 days after insecticide delivery, Replicate 3: 18
  Hatching rate (%), Replicate 1: 17.05%
  Hatching rate (%), Replicate 2: 16.84%
  Hatching rate (%), Replicate 3: 16.22%
[5]
  inhibitory rate against Magnaporthe grisea (in words): strong inhibitory rate
  Average antifungal rate (%): 84.86%
  Antifungal rate of Magnaporthe grisea (%), Replicate 1: 84.82%
  Antifungal rate of Magnaporthe grisea (%), Replicate 2: 83.06%
  Antifungal rate of Magnaporthe grisea (%), Replicate 3: 86.71%

## CC(COc1ccc(Cl)cc1Cl)OS(=O)OCCF [1′-(R,S)]
[1]
  inhibitory activity on the hatching of eggs of Thrips (in words): strong inhibitory activities
[1]; [9]
  Hatching rate (%): 0.00%
  Number of hatched larvae 5 days after insecticide delivery: 0
[1]; [10]
  Hatching rate (%): 0.00%
  Number of hatched larvae 5 days after insecticide delivery: 0
[1]; [11]
  Hatching rate (%): 0.00%
  Number of hatched larvae 5 days after insecticide delivery: 0
[2]
  inhibitory activity on the hatching of eggs of Aleyrodidae (in words): strong inhibitory activities
[2]; listed as 1′-(R, S)
  Hatching rate (%), Replicate 1: 0.00%
  Hatching rate (%), Replicate 2: 0.00%
  Hatching rate (%), Replicate 3: 0.00%
  Number of hatched larvae 5 days after insecticide delivery, Replicate 1: 0
  Number of hatched larvae 5 days after insecticide delivery, Replicate 2: 0
  Number of hatched larvae 5 days after insecticide delivery, Replicate 3: 0
[3]
  inhibitory activity on the hatching of eggs of Spodoptera litura (in words): good inhibitory activities
[3]; listed as 1′-(R, S)
  Hatching rate (%), Replicate 1: 28.33%
  Hatching rate (%), Replicate 2: 25.00%
  Hatching rate (%), Replicate 3: 20.34%
  Number of unhatched larvae 4 days after insecticide delivery, Replicate 1: 43
  Number of unhatched larvae 4 days after insecticide delivery, Replicate 2: 48
  Number of unhatched larvae 4 days after insecticide delivery, Replicate 3: 47
[4]
  inhibitory activity on the hatching of eggs of Harmonia axyridis (in words): strong inhibitory activities
[4]; listed as 1′-(R, S)
  Number of hatched larvae 4 days after insecticide delivery, Replicate 1: 0
  Number of hatched larvae 4 days after insecticide delivery, Replicate 2: 0
  Number of hatched larvae 4 days after insecticide delivery, Replicate 3: 0
  Hatching rate (%), Replicate 1: 0.00%
  Hatching rate (%), Replicate 2: 0.00%
  Hatching rate (%), Replicate 3: 0.00%
[5]
  inhibitory rate against Magnaporthe grisea (in words): strong inhibitory rate
  Average antifungal rate (%): 100.09%
  Antifungal rate of Magnaporthe grisea (%), Replicate 1: 100.26%
  Antifungal rate of Magnaporthe grisea (%), Replicate 2: 99.74%
  Antifungal rate of Magnaporthe grisea (%), Replicate 3: 100.26%
